Measurements: US20110118350A1, “COMPOSITION FOR PREVENTING CARDIOVASCULAR EVENT IN HIGH-RISK PATIENT” (MOCHIDA PHARMACEUTICAL CO., LTD., priority 2008, published 2011)

Assay: Plasma OA/SA ratio in DELIS trial patients (fatty acid composition of plasma)
Assay type: in vivo, human
Settings: for OA/SA ratio in plasma, Average: statin base drug
Excerpt: The ratio of oleic acid (OA) to stearic acid (SA) in plasma can be calculated by collecting blood from a patient and measuring the levels of the individual fatty acids such as OA and SA or the ratio of the individual fatty acids in the total fatty acids by, for example, gas chromatography. The OA/SA ratio can be also calculated from the individual fatty acid levels obtained by performing a clinical test item, that is, fractionation of fatty acids in total lipids which can be performed by, for example, SRL, Inc. The measurement method and calculation method are not particularly limited. The fatty acid fractionation into 24 fractions is a testing method which involves fractionating fatty acids including unsaturated fatty acids into specific 24 fractions and quantitatively determining the fractions by gas chromatography. More specifically, the plasma fatty acids are extracted by the method of, for example, Folch et al. (Folch J. et al., J. Biol. Chem. 226, 497-509 (1957)). It is possible to use tricosanoic acid (C23:0) as an internal standard, to convert each fatty acid into a methyl ester by addition of boron trifluoride and methanol, and to quantitatively determine the methyl ester of each fatty acid by measurement using a gas chromatograph such as SHIMAZU GC-17A (Shimadzu Corporation) and a capillary column such as BPX70 (with an internal diameter of 0.25 mm and a length of 30 m; SGE International Ltd.). However, this is not the sole method of the invention. This trial corresponds to a partial analysis of the results obtained in DELIS (Japan EPA Lipid Intervention Study) which is a large scale clinical trial of high purity EPA preparation which was presented in the American College of Cardiology 2005 Annual Meeting (for general information on DELIS, see Lancet, vol. 369, pp. 1090-1098 (2007)). […]

In the case of `CC/C=C\C/C=C\C/C=C\C/C=C\C/C=C\CCCC(=O)OCC` [EPA-E, ethyl icosapentate], the “change of OA/SA ratio in plasma” value (after the administration of EPA-E) is reported as “significant decrease”, the “OA/SA ratio in plasma, Average” value (before start of trial) is reported as 2.96 and the “OA/SA ratio in plasma, Average” value (during whole observation period, Epadel 600 mg 3 times a day oral) is reported as 2.78.
